# Source: ChEMBL document CHEMBL4251556, “Selective kappa opioid antagonists for treatment of addiction, are we there yet?” (Eur J Med Chem, 2017)
# Residues, ends and D or L forms follow the SMILES beside them.
# Tests used:
# [1] = target: Kappa-type opioid receptor (Cavia porcellus) (UniProt P41144); test: Displacement of [3H]CI-977 from kappa opioid receptor in guinea pig brain membranes after 2 hrs by scintillation counting method; type: cell membranes; conditions: Membrane, concentration not given here
# Chain of Kappa-type opioid receptor (Cavia porcellus) (P41144 whole entry): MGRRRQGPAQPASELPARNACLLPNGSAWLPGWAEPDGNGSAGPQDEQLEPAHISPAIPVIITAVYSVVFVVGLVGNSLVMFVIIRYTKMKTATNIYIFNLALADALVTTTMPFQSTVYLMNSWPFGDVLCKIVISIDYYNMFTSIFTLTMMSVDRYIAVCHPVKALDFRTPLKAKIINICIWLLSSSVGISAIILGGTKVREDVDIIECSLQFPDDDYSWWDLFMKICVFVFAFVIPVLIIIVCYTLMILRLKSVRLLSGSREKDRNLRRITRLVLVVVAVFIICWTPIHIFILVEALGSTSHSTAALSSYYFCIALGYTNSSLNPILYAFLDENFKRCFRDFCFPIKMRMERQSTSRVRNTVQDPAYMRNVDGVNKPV
# [2] = Selectivity ratio of Ki for mu-opioid receptor in rat brain membranes to Ki for kappa opioid receptor in guinea pig brain membranes; type: cell membranes
# [3] = Selectivity ratio of Ki for delta-opioid receptor in rat brain membranes to Ki for kappa opioid receptor in guinea pig brain membranes; type: cell membranes
# [4] = Selectivity ratio of Ki for rat mu-opioid receptor in expressed in rat C6 cell membranes to Ki for human kappa opioid receptor expressed in CHO cell membranes; type: cell-based
# [5] = target: T1, Kappa-type opioid receptor (Homo sapiens, UniProt P41145); test: Displacement of [3H]-diprenorphine from human kappa opioid receptor expressed in CHO cells after 1 hr; type: cell-based
# T1 sequence (P41145 whole entry): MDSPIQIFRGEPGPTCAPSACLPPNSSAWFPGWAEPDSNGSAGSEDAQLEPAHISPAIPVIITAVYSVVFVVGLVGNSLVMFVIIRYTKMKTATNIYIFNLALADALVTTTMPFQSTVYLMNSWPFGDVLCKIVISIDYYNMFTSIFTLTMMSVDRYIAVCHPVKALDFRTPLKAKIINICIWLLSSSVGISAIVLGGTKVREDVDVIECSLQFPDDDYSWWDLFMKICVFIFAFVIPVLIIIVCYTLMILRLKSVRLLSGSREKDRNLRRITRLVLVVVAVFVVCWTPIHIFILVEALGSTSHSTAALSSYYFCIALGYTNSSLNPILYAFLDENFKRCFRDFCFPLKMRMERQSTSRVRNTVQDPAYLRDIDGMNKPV
# Mu-type opioid receptor [6] = target: T2, Mu-type opioid receptor (Rattus norvegicus, UniProt P33535); test: Displacement of [3H]-diprenorphine from rat mu-opioid receptor in expressed in rat C6 cell membranes after 1 hr
# T2 sequence (P33535 whole entry): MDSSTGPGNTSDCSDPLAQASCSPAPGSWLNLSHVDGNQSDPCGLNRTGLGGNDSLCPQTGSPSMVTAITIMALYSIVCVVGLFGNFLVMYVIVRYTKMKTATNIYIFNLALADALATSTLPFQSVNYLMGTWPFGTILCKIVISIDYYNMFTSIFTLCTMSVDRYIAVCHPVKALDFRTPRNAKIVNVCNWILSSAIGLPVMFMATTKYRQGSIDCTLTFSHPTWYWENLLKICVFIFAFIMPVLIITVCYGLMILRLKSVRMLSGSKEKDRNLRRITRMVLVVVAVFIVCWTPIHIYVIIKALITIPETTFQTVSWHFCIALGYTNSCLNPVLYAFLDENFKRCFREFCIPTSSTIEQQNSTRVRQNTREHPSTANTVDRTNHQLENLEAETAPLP
# Homo sapiens [7] = species: Homo sapiens; test: Selectivity ratio of Ki for delta opioid receptor (unknown origin) to Ki for kappa opioid receptor (unknown origin)
# Homo sapiens [8] = species: Homo sapiens; test: Selectivity ratio of Ki for Mu opioid receptor (unknown origin) to Ki for kappa opioid receptor (unknown origin)
# [9] = target: T1, Kappa-type opioid receptor; test: Antagonist activity at kappa opioid receptor (unknown origin); type: functional
# [10] = target: Delta-type opioid receptor (Rattus norvegicus, UniProt P33533); test: Displacement of [3H]DADLE from delta-opioid receptor in rat brain membranes after 2 hrs; type: cell membranes, Membrane
# Chain of Delta-type opioid receptor (Rattus norvegicus, UniProt P33533) (P33533 whole entry): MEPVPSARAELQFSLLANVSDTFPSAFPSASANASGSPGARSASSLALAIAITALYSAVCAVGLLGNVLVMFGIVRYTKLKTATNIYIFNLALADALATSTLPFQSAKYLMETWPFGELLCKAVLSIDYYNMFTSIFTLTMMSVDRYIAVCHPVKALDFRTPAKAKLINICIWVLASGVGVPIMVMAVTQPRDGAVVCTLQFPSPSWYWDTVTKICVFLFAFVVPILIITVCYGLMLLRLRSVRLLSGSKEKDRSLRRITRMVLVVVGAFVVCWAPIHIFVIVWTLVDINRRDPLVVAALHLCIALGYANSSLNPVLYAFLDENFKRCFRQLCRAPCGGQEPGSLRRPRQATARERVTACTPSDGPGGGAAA
# Mu-type opioid receptor [11] = target: T2, Mu-type opioid receptor; test: Displacement of [3H]DAMGO from mu-opioid receptor in rat brain membranes after 2 hrs; type: cell membranes, Membrane
# Rattus norvegicus = test: […] activity in po dosed rat assessed as reversal of U-69593-induced pain response; type: functional
# Oryctolagus cuniculus = species: Oryctolagus cuniculus; test: Antagonist activity at KOR in Japanese white rabbit vas deferens assessed as inhibition of asimadoline-induced suppression of electric field stimulated twitch response after 30 mins
# [12] = target: G_PROTEIN_RECEP_F1_2 domain-containing protein (Cavia porcellus, UniProt A0A286XTF2); test: Displacement of [3H]DPDPE from delta-opioid receptor in guinea pig brain membranes after 30 mins by scintillation counting method; type: cell membranes, Membrane
# Chain of G_PROTEIN_RECEP_F1_2 domain-containing protein (A0A286XTF2 whole entry): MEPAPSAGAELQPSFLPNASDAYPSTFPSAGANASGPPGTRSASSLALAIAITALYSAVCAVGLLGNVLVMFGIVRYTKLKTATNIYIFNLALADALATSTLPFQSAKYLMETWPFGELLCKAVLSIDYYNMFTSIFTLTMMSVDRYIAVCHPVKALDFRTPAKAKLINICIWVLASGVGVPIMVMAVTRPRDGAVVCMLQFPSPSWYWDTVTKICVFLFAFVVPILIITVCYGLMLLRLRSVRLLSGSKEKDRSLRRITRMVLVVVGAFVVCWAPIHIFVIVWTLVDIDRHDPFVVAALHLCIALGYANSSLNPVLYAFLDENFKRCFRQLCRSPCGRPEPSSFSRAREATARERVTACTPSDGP
# [13] = target: T1, Kappa-type opioid receptor; test: Antagonist activity at human kappa opioid receptor expressed in CHO cells assessed as stimulation of [35S]GTPgammaS; type: functional, cell-based
# Mu-type opioid receptor [14] = target: Mu-type opioid receptor (Homo sapiens, UniProt P35372); test: Antagonist activity at human mu opioid receptor expressed in CHO cells assessed as stimulation of [35S]GTPgammaS; type: functional, cell-based
# Chain of Mu-type opioid receptor (Homo sapiens, UniProt P35372) (P35372 whole entry): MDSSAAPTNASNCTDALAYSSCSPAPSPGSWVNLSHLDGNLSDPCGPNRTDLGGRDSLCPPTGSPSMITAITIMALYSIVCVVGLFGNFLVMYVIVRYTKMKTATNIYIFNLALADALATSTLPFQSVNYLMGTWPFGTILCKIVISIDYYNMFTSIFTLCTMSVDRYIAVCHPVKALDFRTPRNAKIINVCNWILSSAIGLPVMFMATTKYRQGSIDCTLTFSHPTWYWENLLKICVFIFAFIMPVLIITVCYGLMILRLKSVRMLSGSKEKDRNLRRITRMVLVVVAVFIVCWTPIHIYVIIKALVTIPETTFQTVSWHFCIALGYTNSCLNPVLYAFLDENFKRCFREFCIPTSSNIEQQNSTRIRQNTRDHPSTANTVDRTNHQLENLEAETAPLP
# [15] = target: Delta-type opioid receptor (Homo sapiens, UniProt P41143); test: Antagonist activity at human delta opioid receptor expressed in CHO cells assessed as stimulation of [35S]GTPgammaS; type: functional, cell-based
# Chain of Delta-type opioid receptor (Homo sapiens, UniProt P41143) (P41143 whole entry): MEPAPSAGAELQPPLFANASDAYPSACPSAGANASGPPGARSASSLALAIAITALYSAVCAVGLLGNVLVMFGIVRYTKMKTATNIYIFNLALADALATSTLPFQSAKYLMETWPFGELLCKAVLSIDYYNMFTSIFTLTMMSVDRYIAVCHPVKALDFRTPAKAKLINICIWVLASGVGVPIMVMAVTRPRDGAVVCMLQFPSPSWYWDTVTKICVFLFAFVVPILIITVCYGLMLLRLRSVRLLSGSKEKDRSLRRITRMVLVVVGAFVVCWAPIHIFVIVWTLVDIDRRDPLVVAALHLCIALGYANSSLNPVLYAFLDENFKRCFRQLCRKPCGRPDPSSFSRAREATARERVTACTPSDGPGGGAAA
# [16] = target: Kappa-type opioid receptor (Cavia porcellus, UniProt P41144); test: Displacement of [3H]U69,593 from kappa opioid receptor in guinea pig brain membranes after 2 hrs; type: cell membranes, Membrane
# Chain of Kappa-type opioid receptor (Cavia porcellus, UniProt P41144) (P41144 whole entry): as the sequence (P41144 whole entry) above
structure (smiles),measurement,setting,value
CC(C)CNCc1ccc(-c2ccccc2S(=O)(=O)N2CCCC2)cc1,inhibition,[1],82%
CC(C)[C@@H](CN1CC[C@@](C)(c2cccc(O)c2)[C@@H](C)C1)NC(=O)[C@H]1Cc2ccc(O)cc2CN1C,Ratio Ki,[2],700
same,Ratio Ki,[3],11600
C[C@H]1CN(CCOC(=O)[C@H]2Cc3ccc(O)cc3CN2)CC[C@@]1(C)c1cccc(O)c1,Ratio Ki,[4],0.72
same,Ki,[5],135 nM
same,Ki,Mu-type opioid receptor [6],97.7 nM
CC(C)[C@@H](CN1CC[C@@](C)(c2cccc(O)c2)[C@@H](C)C1)NC(=O)[C@H]1Cc2ccc(O)cc2CN1C(=O)CN(C)C,Ratio Ki,[2],11
same,Ratio Ki,[3],> 219
CC(=O)N[C@@H](Cc1ccccc1)C(=O)N[C@@H](Cc1ccccc1)C(=O)N[C@@H](Cc1ccccc1)C(=O)N[C@@H](CCCNC(=N)N)C(=O)N[C@@H](CC(C)C)C(=O)N[C@@H](CCCNC(=N)N)C(=O)N[C@@H](CCCNC(=N)N)C(=O)N[C@H](C)C(=O)N[C@@H](CCCNC(=N)N)C(=O)N1CCC[C@H]1C(=O)N[C@@H](CCCCN)C(N)=O (HELM PEPTIDE1{[ac].F.F.F.R.L.R.R.[dA].R.P.K.[am]}$$$$V2.0),Ratio Ki,Homo sapiens [7],583
same,Ratio Ki,Homo sapiens [8],174
same,Ki,[9],10 nM
CC(C)[C@@H](CN1CC[C@@](C)(c2cccc(O)c2)[C@@H](C)C1)NC(=O)[C@H]1Cc2ccc(O)cc2CN1 [JDTIC],Ki,[10],> 300 nM
same,Ki,Mu-type opioid receptor [11],2.16 nM
C[C@H]1CN(CCCOC(=O)[C@H]2Cc3ccc(O)cc3CN2)CC[C@@]1(C)c1cccc(O)c1,Ratio Ki,[4],0.54
same,Ki,[5],174 nM
same,Ki,Mu-type opioid receptor [6],93 nM
Cc1cc(C)cc([C@@H]2CCCN2Cc2ccc(Oc3ccc(C(N)=O)cc3F)cc2)c1 [ATICAPRANT],ED50,Rattus norvegicus,0.4 mg/kg
CCOC(=O)C(CN1CC[C@@](C)(c2cccc(O)c2)[C@@H](C)C1)OC(=O)[C@H]1Cc2ccc(O)cc2CN1 (some centres not stated),Ki,[5],2.39 nM
"O=C1N[C@@H](Cc2ccccc2)C(=O)N2CCC[C@@H]2C(=O)N[C@@H](Cc2ccccc2)C(=O)N[C@H]1Cc1c[nH]c2ccccc12 (HELM PEPTIDE1{F.W.F.[dP]}$PEPTIDE1,PEPTIDE1,1:R1-4:R2$$$V2.0)",ED50,Oryctolagus cuniculus,1300 nM
same,IC50,[12],2600 nM
N=C(N)NCCC[C@@H]1NC(=O)[C@H](CCCNC(=N)N)NC(=O)[C@H](NC(=O)[C@H](Cc2ccccc2)NC(=O)CNC(=O)CNC(=O)[C@H](Cc2ccc(O)cc2)NCc2ccccc2)CC(=O)NC[C@@H](C(=O)N[C@@H](CCCNC(=N)N)C(=O)N2CCC[C@H]2C(=O)N[C@@H](CCCCN)C(N)=O)NC1=O,Ki,[9],30 nM
CCCCC(=N)NCCc1ccc2c(c1)C1C[C@@]3(O)[C@H]4Cc5ccc(O)c6c5[C@@]3(CCN4CC3CC3)[C@@H](O6)C1N2 (some centres not stated),Ki,[13],0.17 nM
same,Ki,Mu-type opioid receptor [14],5.33 nM
same,Ki,[15],3.31 nM
CC(=O)N1Cc2cc(O)ccc2C[C@@H]1C(=O)N[C@H](CN1CC[C@@](C)(c2cccc(O)c2)[C@@H](C)C1)C(C)C,Ratio Ki,[2],5
same,Ratio Ki,[3],> 34
same,Ki,[16],164 nM
